Tested on: 519858-162-T-J1-PDC complex spheroid viability
Test: Anticancer human tumor 519858-162-T-J1-PDC patient-derived colon adenocarcinoma cell line growth inhibition [GQUAD]
Conditions: for IC50: curve of first compound; for viability, T/C: stronger effect = lower value
Procedure, shortened: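 Multi-cell-type spheroids of tumor cells with HUVEC and mesenchymal stem cells, treated with drug combinations. Concentrations descend in half-log steps from near clinical Cmax, or from 10 microM where Cmax is unknown; viability read-out.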
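Further: spheroids exposed to compounds for 7 days.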
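Wherever viability, T/C is given: 100% = DMSO vehicle control viability.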

**Q.** How did the IC50 (second compound 0.0316 µM) turn out when O=c1[nH]cc(F)c(=O)[nH]1 + Cc1[nH]c2ccc(F)cc2c1-c1nc2c3cccnc3c3ncccc3c2[nH]1 was run?
**A.** Its IC50 is > 10 µM.

**Q.** And the IC50 (second compound 0.1 µM)?
**A.** The IC50 was > 10 µM.

**Q.** And the IC50 (second compound 0.316 µM)?
**A.** The IC50 was > 10 µM.

**Q.** And the IC50 (second compound 1 µM)?
**A.** The IC50 was > 10 µM.

**Q.** And the IC50 (second compound 3.16 µM)?
**A.** The IC50 was > 10 µM.

**Q.** And the IC50 (second compound 10 µM)?
**A.** Its IC50 is > 10 µM.

**Q.** And the viability, T/C (second compound 0.0316 µM, first compound 0.0316 µM)?
**A.** Its viability, T/C is 138%.

**Q.** And the viability, T/C (second compound 0.0316 µM, first compound 0.1 µM)?
**A.** The viability, T/C was 85.8%.

**Q.** What about the viability, T/C (second compound 0.0316 µM, first compound 0.316 µM) of the same molecule?
**A.** The viability, T/C was 80.8%.

**Q.** What about the viability, T/C (second compound 0.0316 µM, first compound 1 µM) of the same molecule?
**A.** The viability, T/C was 98.3%.

**Q.** And the viability, T/C (second compound 0.0316 µM, first compound 3.16 µM)?
**A.** The viability, T/C was 81.7%.

**Q.** And the viability, T/C (second compound 0.0316 µM, first compound 10 µM)?
**A.** Its viability, T/C is 87.3%.

**Q.** What about the viability, T/C (second compound 0.1 µM, first compound 0.0316 µM) of the same molecule?
**A.** Its viability, T/C is 116%.

**Q.** What about the viability, T/C (second compound 0.1 µM, first compound 0.1 µM) of the same molecule?
**A.** The viability, T/C was 103%.

**Q.** And the viability, T/C (second compound 0.1 µM, first compound 0.316 µM)?
**A.** Its viability, T/C is 94%.

**Q.** What about the viability, T/C (second compound 0.1 µM, first compound 1 µM) of the same molecule?
**A.** The viability, T/C was 98.6%.

**Q.** And the viability, T/C (second compound 0.1 µM, first compound 3.16 µM)?
**A.** Its viability, T/C is 70.6%.

**Q.** And the viability, T/C (second compound 0.1 µM, first compound 10 µM)?
**A.** The viability, T/C was 84.9%.

**Q.** And the viability, T/C (second compound 0.316 µM, first compound 0.0316 µM)?
**A.** The viability, T/C was 86%.

**Q.** What about the viability, T/C (second compound 0.316 µM, first compound 0.1 µM) of the same molecule?
**A.** The viability, T/C was 103%.

**Q.** And the viability, T/C (second compound 0.316 µM, first compound 0.316 µM)?
**A.** Its viability, T/C is 87.4%.

**Q.** What about the viability, T/C (second compound 0.316 µM, first compound 1 µM) of the same molecule?
**A.** Its viability, T/C is 83.7%.

**Q.** What about the viability, T/C (second compound 0.316 µM, first compound 3.16 µM) of the same molecule?
**A.** The viability, T/C was 86.5%.

**Q.** What about the viability, T/C (second compound 0.316 µM, first compound 10 µM) of the same molecule?
**A.** Its viability, T/C is 74.9%.

**Q.** And the viability, T/C (second compound 1 µM, first compound 0.0316 µM)?
**A.** Its viability, T/C is 101%.

**Q.** What about the viability, T/C (second compound 1 µM, first compound 0.1 µM) of the same molecule?
**A.** Its viability, T/C is 83.2%.

**Q.** And the viability, T/C (second compound 1 µM, first compound 0.316 µM)?
**A.** The viability, T/C was 75.8%.

**Q.** What about the viability, T/C (second compound 1 µM, first compound 1 µM) of the same molecule?
**A.** The viability, T/C was 65.7%.

**Q.** And the viability, T/C (second compound 1 µM, first compound 3.16 µM)?
**A.** Its viability, T/C is 60.6%.

**Q.** What about the viability, T/C (second compound 1 µM, first compound 10 µM) of the same molecule?
**A.** The viability, T/C was 89.5%.

**Q.** And the viability, T/C (second compound 3.16 µM, first compound 0.0316 µM)?
**A.** Its viability, T/C is 57%.

**Q.** What about the viability, T/C (second compound 3.16 µM, first compound 0.1 µM) of the same molecule?
**A.** Its viability, T/C is 69%.

**Q.** And the viability, T/C (second compound 3.16 µM, first compound 0.316 µM)?
**A.** Its viability, T/C is 65.7%.

**Q.** And the viability, T/C (second compound 3.16 µM, first compound 1 µM)?
**A.** Its viability, T/C is 75.5%.

**Q.** What about the viability, T/C (second compound 3.16 µM, first compound 3.16 µM) of the same molecule?
**A.** Its viability, T/C is 71.3%.

**Q.** And the viability, T/C (second compound 3.16 µM, first compound 10 µM)?
**A.** Its viability, T/C is 63%.

**Q.** And the viability, T/C (second compound 10 µM, first compound 0.0316 µM)?
**A.** Its viability, T/C is 81%.

**Q.** What about the viability, T/C (second compound 10 µM, first compound 0.1 µM) of the same molecule?
**A.** Its viability, T/C is 78.1%.

**Q.** And the viability, T/C (second compound 10 µM, first compound 0.316 µM)?
**A.** Its viability, T/C is 59.6%.

**Q.** What about the viability, T/C (second compound 10 µM, first compound 1 µM) of the same molecule?
**A.** Its viability, T/C is 71.9%.

**Q.** What about the viability, T/C (second compound 10 µM, first compound 3.16 µM) of the same molecule?
**A.** The viability, T/C was 83.1%.

**Q.** What about the viability, T/C (second compound 10 µM, first compound 10 µM) of the same molecule?
**A.** Its viability, T/C is 55.6%.
